pIC50: −log10 of the molar value.
How the values were obtained:
[1] = Inhibition of Sprague-Dawley rat adrenal gland 11-hydroxylase using [1,2-3H]-hydroxy-11-deoxycorticosterone as substrate after 30 mins by TLC analysis; type: tissue-based
[2] = target: T1, Steroid 17-alpha-hydroxylase/17,20 lyase (Homo sapiens, UniProt P05093); assay: Inhibition of 17,20-lyase of recombinant human CYP17A1 using [1,2-3H]-17a-hydroxypregnenolone as substrate after 15 mins by TLC analysis
T1 sequence (P05093 whole entry): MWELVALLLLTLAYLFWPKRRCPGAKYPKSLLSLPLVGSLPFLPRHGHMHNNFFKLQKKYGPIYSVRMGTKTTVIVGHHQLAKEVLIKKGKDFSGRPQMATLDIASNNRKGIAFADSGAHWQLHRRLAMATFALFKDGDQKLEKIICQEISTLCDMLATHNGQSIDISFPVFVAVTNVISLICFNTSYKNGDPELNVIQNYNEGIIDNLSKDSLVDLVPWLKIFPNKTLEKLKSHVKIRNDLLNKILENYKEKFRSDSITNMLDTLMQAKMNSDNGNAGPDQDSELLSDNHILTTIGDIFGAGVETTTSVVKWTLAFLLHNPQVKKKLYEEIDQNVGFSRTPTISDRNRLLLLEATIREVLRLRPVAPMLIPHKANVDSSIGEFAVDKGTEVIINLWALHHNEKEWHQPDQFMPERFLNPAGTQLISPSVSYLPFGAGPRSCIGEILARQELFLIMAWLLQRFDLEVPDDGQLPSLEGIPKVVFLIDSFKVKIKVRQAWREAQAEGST

[3] = target: T2, Steroid 17-alpha-hydroxylase/17,20 lyase (Rattus norvegicus, UniProt P11715); assay: Inhibition of 17,20-lyase activity of Sprague-Dawley rat testicular microsomal CYP17A1 using [1,2-3H]-17a-hydroxyprogesterone as substrate after 15 mins by TLC analysis; design: species or system Testis
T2 sequence (P11715 whole entry): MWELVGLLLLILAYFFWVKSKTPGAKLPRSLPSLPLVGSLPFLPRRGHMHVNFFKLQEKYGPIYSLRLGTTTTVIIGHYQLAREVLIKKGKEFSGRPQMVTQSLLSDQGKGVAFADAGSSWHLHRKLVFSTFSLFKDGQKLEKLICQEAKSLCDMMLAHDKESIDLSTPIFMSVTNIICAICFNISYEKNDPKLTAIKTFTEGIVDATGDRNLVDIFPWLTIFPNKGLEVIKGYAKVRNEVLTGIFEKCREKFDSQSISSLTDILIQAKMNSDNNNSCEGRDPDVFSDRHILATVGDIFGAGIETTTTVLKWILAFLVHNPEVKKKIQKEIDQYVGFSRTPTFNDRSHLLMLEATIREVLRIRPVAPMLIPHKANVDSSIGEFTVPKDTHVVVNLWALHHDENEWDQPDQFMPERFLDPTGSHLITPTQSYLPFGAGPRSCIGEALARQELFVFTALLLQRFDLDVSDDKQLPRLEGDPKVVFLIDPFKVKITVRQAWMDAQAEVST

[4] = target: T3, Cytochrome P450 3A4 (Homo sapiens, UniProt P08684); assay: Inhibition of recombinant human CYP3A4 assessed as conversion of testosterone into 6-hydroxytestosterone after 30 mins by HPLC analysis; type: ADME
[5] = test system: Cynomolgus monkey; assay: Reduction of serum testosterone level in cynomolgus monkey at 1 mg/kg, po after 8 hrs by radioimmunoassay (reference value: 296 +/- 277%); type: functional, Macaca fascicularis; design: scale not given: the % may be the effect or the level left
[6] = test system: Cynomolgus monkey; assay: Reduction of serum DHEA level in cynomolgus monkey at 1 mg/kg, po after 8 hrs by radioimmunoassay (reference value: 25 +/- 6.2%); type: functional, Macaca fascicularis; design: scale not given: the % may be the effect or the level left
[7] = target: T1, Steroid 17-alpha-hydroxylase/17,20 lyase; assay: Inhibition of 17,20-lyase activity of human CYP17A1
[8] = target: T3, Cytochrome P450 3A4; assay: Inhibition of CYP3A4; type: ADME
[9] = target: T4, Cytochrome P450 2C8 (Homo sapiens, UniProt P10632); assay: Inhibition of human B-lymphoblastoid cell microsomal CYP2C8 assessed as Tolbutamide hydroxylation preincubated for 5 mins with substrate; type: ADME
T4 sequence (P10632 whole entry): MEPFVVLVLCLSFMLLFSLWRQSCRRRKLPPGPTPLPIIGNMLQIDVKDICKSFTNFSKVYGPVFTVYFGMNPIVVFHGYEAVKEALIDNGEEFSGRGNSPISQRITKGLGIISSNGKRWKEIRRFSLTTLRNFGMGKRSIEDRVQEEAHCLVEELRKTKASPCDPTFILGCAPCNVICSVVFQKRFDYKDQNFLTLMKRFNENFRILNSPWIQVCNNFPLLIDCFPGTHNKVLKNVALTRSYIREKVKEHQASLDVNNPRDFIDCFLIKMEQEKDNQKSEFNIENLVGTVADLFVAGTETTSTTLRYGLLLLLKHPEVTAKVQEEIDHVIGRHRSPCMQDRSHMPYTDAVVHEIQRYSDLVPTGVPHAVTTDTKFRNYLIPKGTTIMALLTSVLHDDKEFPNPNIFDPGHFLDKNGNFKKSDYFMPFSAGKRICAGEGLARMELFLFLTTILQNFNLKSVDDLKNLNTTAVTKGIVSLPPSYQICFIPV

[10] = target: T5, Cytochrome P450 1A2 (Homo sapiens, UniProt P05177); assay: Inhibition of human B-lymphoblastoid cell microsomal CYP1A2 assessed as 7-ethoxyresorufin O-deethylation preincubated for 5 mins with substrate; type: ADME
T5 sequence (P05177 whole entry): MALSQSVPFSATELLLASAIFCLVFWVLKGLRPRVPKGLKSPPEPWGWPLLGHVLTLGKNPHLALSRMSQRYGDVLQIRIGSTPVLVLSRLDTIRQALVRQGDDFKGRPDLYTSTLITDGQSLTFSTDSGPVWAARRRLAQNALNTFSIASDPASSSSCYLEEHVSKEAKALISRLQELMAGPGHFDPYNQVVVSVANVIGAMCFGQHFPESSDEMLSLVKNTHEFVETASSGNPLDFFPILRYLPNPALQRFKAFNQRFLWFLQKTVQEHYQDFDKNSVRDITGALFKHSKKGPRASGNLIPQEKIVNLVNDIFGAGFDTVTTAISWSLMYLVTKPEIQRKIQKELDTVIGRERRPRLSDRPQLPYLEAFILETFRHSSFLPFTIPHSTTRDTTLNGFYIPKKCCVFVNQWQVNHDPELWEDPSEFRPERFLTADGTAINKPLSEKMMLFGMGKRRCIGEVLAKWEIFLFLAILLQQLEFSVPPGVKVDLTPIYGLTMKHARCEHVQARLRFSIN

[11] = test system: Cynomolgus monkey; assay: Reduction of serum DHEA level in cynomolgus monkey at 1 mg/kg, po after 8 hrs by radioimmunoassay (reference value: 54 +/- 25%); type: functional, Macaca fascicularis; design: scale not given: the % may be the effect or the level left
[12] = test system: Cynomolgus monkey; assay: Reduction of serum testosterone level in cynomolgus monkey at 1 mg/kg, po after 10 hrs by radioimmunoassay (reference value: 269.8 +/- 94.5%); type: functional, Macaca fascicularis; design: scale not given: the % may be the effect or the level left
[13] = test system: Cynomolgus monkey; assay: Reduction of serum DHEA level in cynomolgus monkey at 1 mg/kg, po after 5 hrs by radioimmunoassay (reference value: 88.6 +/- 4.4%); type: functional, Macaca fascicularis; design: scale not given: the % may be the effect or the level left
[14] = test system: Cynomolgus monkey; assay: Reduction of serum testosterone level in cynomolgus monkey at 1 mg/kg, po after 2 hrs by radioimmunoassay (reference value: 90 +/- 16.6%); type: functional, Macaca fascicularis; design: scale not given: the % may be the effect or the level left
[15] = test system: Cynomolgus monkey; assay: Reduction of serum DHEA level in cynomolgus monkey at 1 mg/kg, po after 2 hrs by radioimmunoassay (reference value: 97.9 +/- 22.3%); type: functional, Macaca fascicularis; design: scale not given: the % may be the effect or the level left
[16] = test system: Cynomolgus monkey; assay: Reduction of serum DHEA level in cynomolgus monkey at 1 mg/kg, po after 10 hrs by radioimmunoassay (reference value: 7.2 +/- 0.99%); type: functional, Macaca fascicularis; design: scale not given: the % may be the effect or the level left
[17] = target: Cytochrome P450 2D6 (Homo sapiens, UniProt P10635); assay: Inhibition of human B-lymphoblastoid cell microsomal CYP2D6 assessed as (+)-bufuralol 1'-hydroxylation preincubated for 5 mins with substrate; type: ADME
[18] = test system: Cynomolgus monkey; assay: Reduction of serum testosterone level in cynomolgus monkey at 1 mg/kg, po after 8 hrs by radioimmunoassay (reference value: 101 +/- 54%); type: functional, Macaca fascicularis; design: scale not given: the % may be the effect or the level left
[19] = test system: Cynomolgus monkey; assay: Reduction of serum testosterone level in cynomolgus monkey at 1 mg/kg, po after 5 hrs by radioimmunoassay (reference value: 63 +/- 19.2%); type: functional, Macaca fascicularis; design: scale not given: the % may be the effect or the level left

T3 sequence (P08684 whole entry): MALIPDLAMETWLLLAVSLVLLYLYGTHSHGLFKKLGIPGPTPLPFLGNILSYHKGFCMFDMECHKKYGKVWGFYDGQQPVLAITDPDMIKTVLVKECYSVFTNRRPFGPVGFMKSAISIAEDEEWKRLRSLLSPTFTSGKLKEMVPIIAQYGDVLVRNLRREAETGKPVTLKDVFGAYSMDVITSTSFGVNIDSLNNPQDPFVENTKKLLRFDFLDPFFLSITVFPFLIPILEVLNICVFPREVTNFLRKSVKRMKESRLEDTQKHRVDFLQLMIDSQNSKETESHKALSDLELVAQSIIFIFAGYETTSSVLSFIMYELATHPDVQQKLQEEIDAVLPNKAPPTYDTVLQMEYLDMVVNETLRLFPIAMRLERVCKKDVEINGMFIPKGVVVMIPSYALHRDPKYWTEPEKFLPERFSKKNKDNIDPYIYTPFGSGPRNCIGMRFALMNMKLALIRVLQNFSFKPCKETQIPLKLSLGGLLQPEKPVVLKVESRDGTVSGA
Cytochrome P450 2D6, sequence (P10635 whole entry): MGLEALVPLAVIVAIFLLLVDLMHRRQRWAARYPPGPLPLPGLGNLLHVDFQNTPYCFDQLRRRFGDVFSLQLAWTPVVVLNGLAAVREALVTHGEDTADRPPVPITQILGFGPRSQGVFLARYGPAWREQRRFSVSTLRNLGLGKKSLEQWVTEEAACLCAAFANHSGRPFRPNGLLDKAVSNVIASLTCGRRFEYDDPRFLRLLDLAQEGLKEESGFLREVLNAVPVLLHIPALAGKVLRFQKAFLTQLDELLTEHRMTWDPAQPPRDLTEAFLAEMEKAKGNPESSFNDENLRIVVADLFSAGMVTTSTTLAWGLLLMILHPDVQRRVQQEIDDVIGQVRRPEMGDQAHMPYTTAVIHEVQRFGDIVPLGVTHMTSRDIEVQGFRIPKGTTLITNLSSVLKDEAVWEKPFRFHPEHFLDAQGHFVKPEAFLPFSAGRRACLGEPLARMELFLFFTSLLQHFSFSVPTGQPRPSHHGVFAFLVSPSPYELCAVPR

Structure (SMILES) | pIC50 [1] | pIC50 [2] | pIC50 [3] | pIC50 [4] | further results
NC(=O)c1ccc2cc(C3(O)CCn4cncc43)ccc2c1 (racemic) | 7.00 | 7.54 | 7.62 | < 5.00 | –
CNC(=O)c1ccc2cc(C3(O)CCn4cncc43)ccc2c1 (racemic) | < 6.00 | – | – | – | –
CCNC(=O)c1ccc2cc(C3(O)CCn4cncc43)ccc2c1 (racemic) | < 6.00 | 6.72 | 6.96 | < 5.00 | –
CNC(=O)c1ccc2cc(C3(O)c4cncn4CC3(C)C)ccc2c1 (racemic) | 6.28 | 7.06 | 6.96 | 5.49 | –
CNC(=O)c1ccc2cc(C(C)(O)c3cncn3C)ccc2c1 (racemic) | < 6.00 | 6.39 | < 6.00 | 5.16 | –
CC(C)NC(=O)c1ccc2cc(C3(O)CCn4cncc43)ccc2c1 (racemic) | < 6.00 | 6.40 | 6.80 | < 5.00 | –
CNC(=O)c1ccc2cc(C(O)(c3c[nH]cn3)C(C)C)ccc2c1 (racemic) | < 6.00 | – | – | – | –
CNC(=O)c1ccc2cc([C@]3(O)CCn4cncc43)ccc2c1 | < 6.00 | – | 6.74 | – | Activity [5]: 258%; Activity [6]: 91%
CNC(=O)c1ccc2cc([C@](O)(c3c[nH]cn3)C(C)C)ccc2c1 | – | – | – | – | pIC50 [7]: 8.26; pIC50 [8]: 5.11
CNC(=O)c1ccc2cc(C3CCn4cncc43)ccc2c1 (racemic) | 6.54 | 7.89 | 7.82 | > 6.00 | –
O=C(NC1CC1)c1ccc2cc(C3(O)CCn4cncc43)ccc2c1 (racemic) | < 6.00 | 6.54 | 7.00 | < 5.00 | –
CNC(=O)c1ccc2cc([C@@]3(O)CCn4cncc43)ccc2c1 [ORTERONEL] | < 6.00 | – | 7.32 | – | pIC50 [9]: < 4.52; pIC50 [10]: 4.55; Activity [11]: 12%; Activity [12]: 55.6%; Activity [13]: 32.8%; Activity [14]: 75.9%; Activity [15]: 61.1%; Activity [16]: 7.6%; pIC50 [17]: < 4.52; Activity [18]: 30%; Activity [19]: 14.2%

Source: ChEMBL document CHEMBL1921734 (Bioorg Med Chem, 2011)
